Data published in patent publication US20260083751A1, “ALLOSTERIC MODULATORS OF ANDROGEN RECEPTOR COACTIVATOR RECRUITMENT FOR CRPC THERAPY” (University of Pittsburgh – Of the Commonwealth System of …, priority 2022, published 2026).
Entries after “also recorded” stand apart in the source; their conditions may differ. Where two headings read alike, the source gives them in different places. Values belong to the compound of their own block, whether it stands above or below them.

Assays:
Assay type in all cases: cell-based
[1] = test system: DHT-induced full length AR PSA promoter-driven transcription in C4-2 CRPC cells; experiment: PSA-6.1 luciferase reporter assay in C4-2 CRPC cells
Method: Prostate Specific Antigen (PSA)-6.1 Luciferase Reporter Assay in the C4-2 CRPC Cell Line: The PSA-6.1-Luc luciferase reporter plasmid was provided by Dr. Zhou Wang in the Urology department of the University of Pittsburgh Cancer Institute. The PSA-6.1-Luc reporter is controlled by a fragment of the PSA promoter that contains at least three AREs. The PSA-6.1-Luc plasmid (12 ng/well) was combined with FuGENE® 6 transfection agent at a ratio 6:1 in SFM and incubated for 25 minutes at room temperature before being combined with C4-2 cells suspended in RPMI 1640 media containing 1% penicillin-streptomycin, 1% L-glutamine, and 10% FBS. Transfected cells were then seeded into white opaque 384-well assay plates (Greiner Bio-one, #781080) at 6,000 cells per well in a volume of 30 μL and incubated in 5% CO2, 37° C., and 95% humidity for 24 h.

[2] = test system: DHT-induced AR-mediated PSA promoter-driven transcription in PC3-AR-FL-GFP cells; experiment: PSA promoter-driven transcription in PC3-AR-FL-GFP cells
Method: Compounds 1-5 were assessed to determine whether each compound could block DHT-induced AR-TIF2 PPI (protein-protein interaction complex) formation and/or disrupt preformed DHT-induced AR-TIF2 PPIs. Additionally, the following activities were evaluated: • inhibition of DHT-induced AR-mediated PSA promoter-driven transcription in C4-2 CRPC cells; • inhibition of DHT-induced AR-LBD PPI interactions with TIF2 and SRC1 coactivators; • inhibition of DHT-induced AR-LBD PPI interactions with TIF2 Box III-LXXLL peptide; • inhibition of H^3-DHT binding to AR-LBD; • inhibition of DHT-induced AR-mediated PSA promoter-driven transcription in PC3-AR-FL-GFP cells; • inhibition of constitutive AR-V7-mediated PSA promoter-driven transcription in PC3-AR-V7 GFP cells; • inhibition of constitutive UBE2C promoter-driven transcription in PC3-AR-V7 GFP cells; • inhibition of growth in AR-negative prostate cancer (PCa) cell lines PC3 and DU145; and • inhibition of growth in AR-positive PCa cell lines LNCap, C4-2 (CRPC), and 22Rv1 (CRPC).

[3] = target: T1, AR (Homo sapiens, UniProt P10275, T878A); experiment: AlphaScreen cellular thermal shift assay (CETSA) for AR target engagement in C4-2 cells; conditions: for AR thermal stability at 46° C., compound alone / DHT-induced (DHT-enhanced) AR thermal stability at 46° C.: C4-2 cells; for AR thermal stability at 46° C., compound alone: 20 μM where stated, 46° C. for 5 min; for DHT-induced (DHT-enhanced) AR thermal stability at 46° C.: compound 20 μM where stated, 10 nM DHT; for DHT-enhanced AR stability at 46° C.: 20 μM and 50 μM compound; for Right shift of the DHT EC50: 20 or 50 μM compound; for Maximum efficacy of DHT-enhanced AR thermal stabilization: S2-6 at 20 or 50 μM, S3-11 at 50 μM; for IC50: read-out: IC50, inhibition of DHT-induced AR stability at 46° C.
T1 construct: the amount of soluble AR protein in heat shocked C4-2 cell lysates; endogenous in cells; host or cells: C4-2 castration resistant prostate cancer cells
T1 sequence (P10275 1-920 T878A): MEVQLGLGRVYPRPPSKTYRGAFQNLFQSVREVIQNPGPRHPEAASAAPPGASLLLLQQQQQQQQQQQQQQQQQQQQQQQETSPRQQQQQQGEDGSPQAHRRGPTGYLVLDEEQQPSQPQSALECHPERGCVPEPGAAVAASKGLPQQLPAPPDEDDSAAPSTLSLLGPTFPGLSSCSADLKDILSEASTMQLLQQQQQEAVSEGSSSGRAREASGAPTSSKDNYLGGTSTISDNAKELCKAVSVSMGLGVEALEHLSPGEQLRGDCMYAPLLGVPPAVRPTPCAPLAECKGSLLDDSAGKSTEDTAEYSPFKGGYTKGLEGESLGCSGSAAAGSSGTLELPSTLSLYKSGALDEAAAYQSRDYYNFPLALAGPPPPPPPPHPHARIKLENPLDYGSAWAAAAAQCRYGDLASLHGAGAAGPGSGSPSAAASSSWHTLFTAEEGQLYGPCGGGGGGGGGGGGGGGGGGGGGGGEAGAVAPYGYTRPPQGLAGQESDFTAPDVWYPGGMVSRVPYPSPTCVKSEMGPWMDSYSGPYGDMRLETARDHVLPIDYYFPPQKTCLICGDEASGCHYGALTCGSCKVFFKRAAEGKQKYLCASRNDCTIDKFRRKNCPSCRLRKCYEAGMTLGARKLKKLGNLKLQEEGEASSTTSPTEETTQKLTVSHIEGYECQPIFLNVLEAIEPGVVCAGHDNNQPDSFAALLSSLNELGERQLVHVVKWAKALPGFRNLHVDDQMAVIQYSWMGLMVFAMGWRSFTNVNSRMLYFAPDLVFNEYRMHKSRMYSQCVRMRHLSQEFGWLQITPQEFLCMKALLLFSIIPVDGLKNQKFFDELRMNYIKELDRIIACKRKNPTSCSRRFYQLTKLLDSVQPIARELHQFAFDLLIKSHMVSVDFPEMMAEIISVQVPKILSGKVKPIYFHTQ
Method: Mouse anti-hAR (BD Biosciences, San Jose, CA) and rabbit anti-hAR (MilliporeSigma, Burlington, MA) were diluted 1:330 and 1:1000 fold respectively in PBS containing 0.5 mg/mL BSA and 4 μL of the combined diluted AR antibody pair were added to 4 μL of the cell lysate supernatant in a 384-well plate and incubated in the dark for 30 min at room temperature. To each well of the 384-well plate 4 μL of a combined solution of anti-mouse IgG Alpha Donor and anti-rabbit IgG (Fc specific) AlphaLISA® Acceptor beads (Perkin Elmer, Waltham, MA) suspended in 1× lysis buffer was added to yield a final donor and acceptor bead concentrations of 40 μg/mL and 10 μg/mL respectively.

[4] = test system: AR-V7-mediated PSA promoter-driven transcription in PC3-AR-V7-GFP cells; experiment: PSA6.1 promoter driven luciferase reporter assay in PC3-AR-V7-GFP cells
Method: PSA6.1 Promoter Driven Luciferase Reporter Assay in PC3-AR-V7-GFP Cells: PC3-AR-V7-GFP cells were bulk transfected with a mixture of FuGENE® HD transfection agent and the PSA-6.1-Luc reporter plasmid (20 ng/well) combined at a 3:1 (μL:μg) ratio in Opti-MEM™ medium (Gibco, Gaithersburg, MD) that had been incubated for 25 min at RT before being added to PC3-AR-V7-GFP cells that were suspended in RPMI 1640 (Gibco) media containing 1% L-glutamine (Invitrogen), and 10% fetal bovine serum (Gemini Bio-products). Bulk transfected PC3-AR-V7-GFP cells were seeded into white opaque 384-well assay plates (Greiner Bio-one, #781080) at 3,000 cells per well in a volume of 40 μL and incubated at 5% CO2, 37° C., and 95% humidity for 24 h. After 24 h, 5 μL of compounds were transferred to assay wells and the plates were returned to the incubator for an additional 24 h before 25 μL of BrightGlo® luciferase reagent (Promega) was added to the wells and the RLU's were captured on a SpectraMax® M5e plate reader (Molecular Devices LLC) as described previously (Fancher et al., Assay Drug Dev Technol. 2019, 17:364-386).

[5] = 24 h, 24 h exposure, read-out: IC50 in PSA-Luc AR-V7 reporter assay (potency range in words)
[6] = PC3-AR-V7-GFP cells, constitutive, read-out: Inhibition AR-V7 PSA-reporter IC50
[7] = C4-2, 24 h, 24 h exposure, read-out: IC50 in PSA-Luc reporter assay, C4-2 cells (potency range in words)
[8] = C4-2 CRPC cells, read-out: Inhibition of DHT-induced full length AR PSA reporter IC50
[9] = b132, read-out: IC50, DHT-induced AR-mediated PSA promoter-driven transcription in C4-2 CRPC cells

SMILES: Cc1ccccc1-c1cc(O)c2c(c1)CN(c1nc(C(N)=O)cs1)CCO2 [Compound S1-1]
IC50 ([1]; C4-2 CRPC cells, listed as 1, read-out: Inhibition of DHT-induced full length AR PSA reporter IC50): 5.27 µM | IC50 [2]: < 44 µM | AR thermal stability at 46° C., compound alone [3]: did not stabilize AR | DHT-induced (DHT-enhanced) AR thermal stability at 46° C. [3]: blocked DHT-enhanced AR thermal stabilization; also recorded: inhibition of DHT-enhanced AR thermal stability

SMILES: Cc1c(-c2ccccc2F)[nH]c2ccc(CNC(=O)CCc3cn[nH]c3)cc12 [Compound S3-11]
IC50 [4, 5]: 10 to 100 µM | IC50 [4, 6]: 3.13 µM | IC50 [1, 7]: 1 to 10 µM | IC50 [1, 8]: 4.21 µM | IC50 [2]: ~50 µM | DHT-enhanced AR stability at 46° C. [3]: inhibited DHT-enhanced AR stability | Right shift of the DHT EC50 [3]: ≥ 10 fold | AR thermal stability at 46° C., compound alone [3]: did not stabilize AR | DHT-induced (DHT-enhanced) AR thermal stability at 46° C. [3]: blocked DHT-enhanced AR thermal stabilization; also recorded: inhibition of DHT-enhanced AR thermal stability | Maximum efficacy of DHT-enhanced AR thermal stabilization [3]: reduced the maximum efficacy of DHT | IC50 [3]: 29.9 µM

SMILES: Cc1c(-c2ccccc2F)[nH]c2ccc(CNC(=O)c3ccc(CO)o3)cc12 [Compound S3-14]
IC50 [4, 5]: 10 to 100 µM | IC50 [2]: ~50 µM | IC50 ([3]; b133, unit inferred): 9.46 µM

SMILES: COc1cc(-c2ccc(C)s2)cc2c1OCCN(c1nc(C(N)=O)cs1)C2 [Compound S1-5]
IC50 [1, 8]: < 37 µM

SMILES: CC(=O)NCCC(=O)NCc1ccc2[nH]c(-c3ccccc3F)c(C)c2c1 [Compound S3-13]
IC50 [4, 5]: 10 to 100 µM | IC50 [1, 9]: 40 to 59 µM | IC50 [2]: > 100 µM

SMILES: Cc1c(-c2ccc(F)cc2)[nH]c2ccc(CNC(=O)c3ccc(CO)o3)cc12 [Compound S3-15]
IC50 [4, 5]: 1 to 10 µM | IC50 [1, 7]: 1 to 10 µM | IC50 [2]: ~10 µM | IC50 [3]: 86.1 µM

SMILES: CNC(=O)c1ccc(-c2c[nH]c3c(C)cccc23)cc1 [Compound S3-21]
IC50 [4, 6]: > 100 µM | IC50 [1, 7]: 10 to 100 µM | IC50 [1, 9]: 40 to 59 µM | IC50 [2]: > 100 µM

Now from value to compound, other results behind:

IC50 [1, 8]: < 37 µM
SMILES: Cc1ccccc1-c1cc(O)c2c(c1)CN(c1cc(N)ncn1)CCO2 [Compound S1-4]

IC50 [4, 6]: 12.2 µM | IC50 [1, 8]: < 37 µM | IC50 [2]: < 44 µM
SMILES: Cc1nc(N)cc(N2CCOc3c(O)cc(-c4ccccc4C)cc3C2)n1 [Compound S1-2]

IC50 [1, 8]: < 37 µM
SMILES: Cc1ccccc1-c1cc(O)c2c(c1)CN(c1nccs1)CCO2 [Compound S1-3]

IC50 [2]: ~28 µM | DHT-enhanced AR stability at 46° C. [3]: inhibited DHT-enhanced AR stability | Right shift of the DHT EC50 [3]: > 10 fold | AR thermal stability at 46° C., compound alone [3]: did not stabilize AR | AR thermal stability at 46° C., compound alone ([3]; listed as 6): did not enhance AR stability | DHT-induced (DHT-enhanced) AR thermal stability at 46° C. ([3]; listed as 6): inhibited DHT-induced AR stability | IC50 [3]: 4.1 µM
SMILES: Cc1nsc(NC(=O)N2CCC(Sc3ccccc3C)CC2)n1 [Compound S2-6]
DHT-induced (DHT-enhanced) AR thermal stability at 46° C. [3]: blocked DHT-enhanced AR thermal stabilization; also recorded: inhibition of DHT-enhanced AR thermal stability | Maximum efficacy of DHT-enhanced AR thermal stabilization [3]: reduced the maximum efficacy of DHT-enhanced AR thermal stabilization

IC50 [4, 5]: 1 to 10 µM | IC50 [1, 7]: 1 to 10 µM | IC50 [2]: > 100 µM | IC50 [3]: 52.6 µM
SMILES: Cc1c(-c2ccccc2F)[nH]c2ccc(CNC(=O)CCc3cnccn3)cc12 [Compound S3-12]

IC50 [4, 5]: 10 to 100 µM | IC50 [1, 7]: 1 to 10 µM | IC50 [2]: ~50 µM | DHT-enhanced AR stability at 46° C. [3]: inhibited DHT-enhanced AR stability | IC50 [3]: 9.46 µM
SMILES: Cc1cccc2c(-c3ccc(O)c(F)c3)c[nH]c12 [Compound S3-17]
